7 molecules from ChEMBL document CHEMBL4477225, “Development of a cell viability assay to assess drug metabolite structure-toxicity relationships” (Bioorg Med Chem Lett, 2016) can be followed below.

Details in all cases: recombinant enzyme
The target in data set [1] is T1, Cytochrome P450 2C9 (Homo sapiens, UniProt P11712). The data set can be described thus: Drug activation in human Hep3B cells assessed as human CYP2C9-mediated drug metabolism-induced cytotoxicity measured as decrease in cell viability at 300 uM pre-incubated with BSO for 18 hrs followed by incubation with compound for 3 hrs in presence of NADPH measured after 24 hrs in absence of compound, CYP3A4 and NADPH by cell titer-glo luminescence assay relative to BSO alone.
T1 sequence (P11712 whole entry): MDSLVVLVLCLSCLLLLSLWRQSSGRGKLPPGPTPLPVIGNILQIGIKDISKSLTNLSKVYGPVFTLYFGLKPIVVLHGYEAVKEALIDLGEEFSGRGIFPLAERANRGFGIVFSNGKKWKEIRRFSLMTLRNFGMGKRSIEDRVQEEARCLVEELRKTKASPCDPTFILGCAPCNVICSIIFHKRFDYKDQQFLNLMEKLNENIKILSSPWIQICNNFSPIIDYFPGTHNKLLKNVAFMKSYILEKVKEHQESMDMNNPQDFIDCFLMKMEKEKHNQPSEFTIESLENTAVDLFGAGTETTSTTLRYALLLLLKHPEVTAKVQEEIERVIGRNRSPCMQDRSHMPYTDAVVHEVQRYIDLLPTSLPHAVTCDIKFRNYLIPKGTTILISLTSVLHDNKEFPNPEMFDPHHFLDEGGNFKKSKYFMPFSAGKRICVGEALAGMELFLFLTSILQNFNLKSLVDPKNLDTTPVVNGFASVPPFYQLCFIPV

For data set [2], the target named is T2, Cytochrome P450 3A4 (Homo sapiens, UniProt P08684). Put plainly: Drug activation in human Hep3B cells assessed as human CYP3A4-mediated drug metabolism-induced cytotoxicity measured as decrease in cell viability at 209.7 uM pre-incubated with BSO for 18 hrs followed by incubation with compound for 3 hrs in presence of NADPH measured after 24 hrs in absence of compound, CYP3A4 and NADPH by cell titer-glo luminescence assay relative to BSO alone. Format: ADME, cell-based.
T2 sequence (P08684 whole entry): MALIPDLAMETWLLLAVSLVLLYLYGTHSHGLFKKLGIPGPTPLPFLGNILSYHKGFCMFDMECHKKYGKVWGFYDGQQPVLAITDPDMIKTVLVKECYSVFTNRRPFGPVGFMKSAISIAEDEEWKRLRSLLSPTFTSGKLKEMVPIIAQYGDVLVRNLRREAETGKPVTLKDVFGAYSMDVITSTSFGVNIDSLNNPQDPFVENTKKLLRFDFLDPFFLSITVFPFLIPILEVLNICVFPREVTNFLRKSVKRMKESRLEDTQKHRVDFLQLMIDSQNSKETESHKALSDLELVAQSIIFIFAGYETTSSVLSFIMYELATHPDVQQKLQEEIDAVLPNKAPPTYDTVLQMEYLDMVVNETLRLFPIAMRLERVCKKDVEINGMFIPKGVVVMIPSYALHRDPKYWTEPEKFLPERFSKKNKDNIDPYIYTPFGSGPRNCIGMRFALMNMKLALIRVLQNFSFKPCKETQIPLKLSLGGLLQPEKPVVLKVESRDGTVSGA

The target in data set [3] is T3, Cytochrome P450 2D6 (Homo sapiens, UniProt P10635). Put plainly: Drug activation in human Hep3B cells assessed as human CYP2D6-mediated drug metabolism-induced cytotoxicity measured as decrease in cell viability at 156.7 uM pre-incubated with BSO for 18 hrs followed by incubation with compound for 3 hrs in presence of NADPH measured after 24 hrs in absence of compound, CYP3A4 and NADPH by cell titer-glo luminescence assay relative to BSO alone. The format is ADME, cell-based.
T3 sequence (P10635 whole entry): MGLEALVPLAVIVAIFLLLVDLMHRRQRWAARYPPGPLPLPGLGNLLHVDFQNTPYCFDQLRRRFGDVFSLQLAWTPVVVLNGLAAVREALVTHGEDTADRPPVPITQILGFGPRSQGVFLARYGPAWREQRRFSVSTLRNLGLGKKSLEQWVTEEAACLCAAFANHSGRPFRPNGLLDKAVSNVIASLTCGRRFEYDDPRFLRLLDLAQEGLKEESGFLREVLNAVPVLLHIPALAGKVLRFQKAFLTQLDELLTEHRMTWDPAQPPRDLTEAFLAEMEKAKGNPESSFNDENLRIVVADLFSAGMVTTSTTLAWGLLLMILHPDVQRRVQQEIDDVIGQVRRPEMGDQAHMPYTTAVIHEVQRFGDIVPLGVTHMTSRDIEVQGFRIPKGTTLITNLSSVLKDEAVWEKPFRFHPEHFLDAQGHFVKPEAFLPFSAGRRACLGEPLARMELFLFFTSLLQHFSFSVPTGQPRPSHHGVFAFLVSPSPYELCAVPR

Data set [4] has as its target T2, Cytochrome P450 3A4. Put plainly: Drug activation in human Hep3B cells assessed as human CYP3A4-mediated drug metabolism-induced cytotoxicity measured as decrease in cell viability at 68 uM pre-incubated with BSO for 18 hrs followed by incubation with compound for 3 hrs in presence of NADPH measured after 24 hrs in absence of compound, CYP3A4 and NADPH by cell titer-glo luminescence assay relative to BSO alone. The format is ADME, cell-based. In general terms: ATP-based viability assays read luminescence as a measure of living cells.

The target in data set [5] is T3, Cytochrome P450 2D6. Put plainly: Drug activation in human Hep3B cells assessed as human CYP2D6-mediated drug metabolism-induced cytotoxicity measured as decrease in cell viability at 80.4 uM pre-incubated with BSO for 18 hrs followed by incubation with compound for 3 hrs in presence of NADPH measured after 24 hrs in absence of compound, CYP3A4 and NADPH by cell titer-glo luminescence assay relative to BSO alone. Format: ADME, cell-based.

The target in data set [6] is T1, Cytochrome P450 2C9. Put plainly: Drug activation in human Hep3B cells assessed as human CYP2C9-mediated drug metabolism-induced cytotoxicity measured as decrease in cell viability at 70.1 uM pre-incubated with BSO for 18 hrs followed by incubation with compound for 3 hrs in presence of NADPH measured after 24 hrs in absence of compound, CYP3A4 and NADPH by cell titer-glo luminescence assay relative to BSO alone. Format: ADME, cell-based.

Data set [7] addresses T2, Cytochrome P450 3A4. Put plainly: Drug activation in human Hep3B cells assessed as human CYP3A4-mediated drug metabolism-induced cytotoxicity measured as decrease in cell viability at 74.4 uM pre-incubated with BSO for 18 hrs followed by incubation with compound for 3 hrs in presence of NADPH measured after 24 hrs in absence of compound, CYP3A4 and NADPH by cell titer-glo luminescence assay relative to BSO alone. The format is ADME, cell-based.

For data set [8], the target named is T3, Cytochrome P450 2D6. Put plainly: Drug activation in human Hep3B cells assessed as human CYP2D6-mediated drug metabolism-induced cytotoxicity measured as decrease in cell viability at 21.3 uM pre-incubated with BSO for 18 hrs followed by incubation with compound for 3 hrs in presence of NADPH measured after 24 hrs in absence of compound, CYP3A4 and NADPH by cell titer-glo luminescence assay relative to BSO alone. Format: ADME, cell-based.

In data set [9] the target is T1, Cytochrome P450 2C9. The data set can be described thus: Drug activation in human Hep3B cells assessed as human CYP2C9-mediated drug metabolism-induced cytotoxicity measured as decrease in cell viability at 51.1 uM pre-incubated with BSO for 18 hrs followed by incubation with compound for 3 hrs in presence of NADPH measured after 24 hrs in absence of compound, CYP3A4 and NADPH by cell titer-glo luminescence assay relative to BSO alone. The format is ADME, cell-based.

Data set [10] concerns the target T2, Cytochrome P450 3A4. The data set can be described thus: Drug activation in human Hep3B cells assessed as human CYP3A4-mediated drug metabolism-induced cytotoxicity measured as decrease in cell viability at 137.9 uM pre-incubated with BSO for 18 hrs followed by incubation with compound for 3 hrs in presence of NADPH measured after 24 hrs in absence of compound, CYP3A4 and NADPH by cell titer-glo luminescence assay relative to BSO alone. Format: ADME, cell-based.

Data set [11] deals with T3, Cytochrome P450 2D6. Put plainly: Drug activation in human Hep3B cells assessed as human CYP2D6-mediated drug metabolism-induced cytotoxicity measured as decrease in cell viability at 114.4 uM pre-incubated with BSO for 18 hrs followed by incubation with compound for 3 hrs in presence of NADPH measured after 24 hrs in absence of compound, CYP3A4 and NADPH by cell titer-glo luminescence assay relative to BSO alone. Format: ADME, cell-based.

The target in data set [12] is T2, Cytochrome P450 3A4. The data set can be described thus: Drug activation in human Hep3B cells assessed as human CYP3A4-mediated drug metabolism-induced cytotoxicity measured as decrease in cell viability at 22.3 uM pre-incubated with BSO for 18 hrs followed by incubation with compound for 3 hrs in presence of NADPH measured after 24 hrs in absence of compound, CYP3A4 and NADPH by cell titer-glo luminescence assay relative to BSO alone. The format is ADME, cell-based.

For data set [13], the target named is T3, Cytochrome P450 2D6. The data set can be described thus: Drug activation in human Hep3B cells assessed as human CYP2D6-mediated drug metabolism-induced cytotoxicity measured as decrease in cell viability at 17.6 uM pre-incubated with BSO for 18 hrs followed by incubation with compound for 3 hrs in presence of NADPH measured after 24 hrs in absence of compound, CYP3A4 and NADPH by cell titer-glo luminescence assay relative to BSO alone. The format is ADME, cell-based.

For data set [14], the target named is T1, Cytochrome P450 2C9. Put plainly: Drug activation in human Hep3B cells assessed as human CYP2C9-mediated drug metabolism-induced cytotoxicity measured as decrease in cell viability at 39 uM pre-incubated with BSO for 18 hrs followed by incubation with compound for 3 hrs in presence of NADPH measured after 24 hrs in absence of compound, CYP3A4 and NADPH by cell titer-glo luminescence assay relative to BSO alone. Format: ADME, cell-based.

Data set [15] addresses T2, Cytochrome P450 3A4. Put plainly: Drug activation in human Hep3B cells assessed as human CYP3A4-mediated drug metabolism-induced cytotoxicity measured as decrease in cell viability at 8.7 uM pre-incubated with BSO for 18 hrs followed by incubation with compound for 3 hrs in presence of NADPH measured after 24 hrs in absence of compound, CYP3A4 and NADPH by cell titer-glo luminescence assay relative to BSO alone. The format is ADME, cell-based.

Data set [16] addresses T3, Cytochrome P450 2D6. Put plainly: Drug activation in human Hep3B cells assessed as human CYP2D6-mediated drug metabolism-induced cytotoxicity measured as decrease in cell viability at 12.9 uM pre-incubated with BSO for 18 hrs followed by incubation with compound for 3 hrs in presence of NADPH measured after 24 hrs in absence of compound, CYP3A4 and NADPH by cell titer-glo luminescence assay relative to BSO alone. The format is ADME, cell-based.

Data set [17] addresses T2, Cytochrome P450 3A4. Put plainly: Drug activation in human Hep3B cells assessed as human CYP3A4-mediated drug metabolism-induced cytotoxicity measured as decrease in cell viability at 300 uM pre-incubated with BSO for 18 hrs followed by incubation with compound for 3 hrs in presence of NADPH measured after 24 hrs in absence of compound, CYP3A4 and NADPH by cell titer-glo luminescence assay relative to BSO alone.

Data set [18] deals with T3, Cytochrome P450 2D6. The data set can be described thus: Drug activation in human Hep3B cells assessed as human CYP2D6-mediated drug metabolism-induced cytotoxicity measured as decrease in cell viability at 264.7 uM pre-incubated with BSO for 18 hrs followed by incubation with compound for 3 hrs in presence of NADPH measured after 24 hrs in absence of compound, CYP3A4 and NADPH by cell titer-glo luminescence assay relative to BSO alone. The format is ADME, cell-based.

`O=C(COc1ccc(Cl)cc1)N1CCN(Cc2ccc3c(c2)OCO3)CC1` [FIPEXIDE]: in [1], the FC came out at 0.4. Besides, the “fold change (FC)” value stood at 0.6 in data set [2] and 0.8 in data set [3].
Consider `CNCCC(Oc1ccc(C(F)(F)F)cc1)c1ccccc1` (stereo unspecified) [FLUOXETINE], for which the “fold change (FC)” value in data set [4] is reported as 0.7; in data set [5], 0.6; in data set [6] it was 0.7.
As to `CN(C)CCCN1c2ccccc2CCc2ccccc21` [IMIPRAMINE], the results for the “fold change (FC)” value in data set [7], in data set [8] and in data set [9] were 0.2, 0.7 and 0.3, respectively.
As for `CC(C)NNC(=O)c1ccncc1` [IPRONIAZID], in [1], the FC is listed as 1. Further, the “fold change (FC)” value was determined as 2.2 in [10] and 2.6 in [11].
`O=C(c1ccccc1)c1ccc2n1CCC2C(=O)O` (stereo unspecified) [KETOROLAC]: the “fold change (FC)” value in [12] is 0.6; in [13], 0.8; in [14] it was 0.4.
On to `O=c1n(CCCN2CCN(c3cccc(Cl)c3)CC2)nc2ccccn12` [TRAZODONE], for which the FC in [1] is recorded as 1. Also, the “fold change (FC)” value in data set [15] was 34.4; in [16], 23.2.
Turning to `N[C@@H]1[C@H]2CN(c3nc4c(cc3F)c(=O)c(C(=O)O)cn4-c3ccc(F)cc3F)C[C@@H]12` [TROVAFLOXACIN], the FC in data set [1] and in data set [17] was 1 throughout. Further, in data set [18], the “fold change (FC)” value is listed as 1.1.
